Consider one molecule from patent US20100048630A1, “METHODS FOR TREATING CNS DISORDERS” (priority 2008, published 2010).

The subject of assay [1] is Male NMRI mice. The assay is described as follows: Spontaneous locomotor activity (four-channel activity monitor). The following applies: doses of 5 and 10 mg/kg. It is filed as in vivo. Here is the method: (§1) Male NMRI mice weighing 24-26 g were used. The animals were kept in polycarbonate cages in a thermostatically controlled room at 24±2° C. and at a relative humidity (RH) of 50±10%. The room was artificially illuminated from 6 am to 6 pm and the mice were given commercial pellet rat-mouse feed, autoclaved at 105° C. and sterile filtered tap water, ad libitum.
(§2) An aqueous solution of radiprodil, in the form of a complex with heptakis(2,6-di-O-methyl)-β-cyclodextrin (DIMEB), was administered orally at doses of 2.5, 5 and 10 mg/kg (calculated for non-complexed radiprodil). […]
Spontaneous locomotor activity was measured in a four-channel activity monitor manufactured by Farmakotechnika (Hungary). […] The photocell beam, when broken, signaled a count, which was then recorded by a computer.
Each group consisted of 10 animals. […] The horizontal and vertical movements were determined as the number of beam interruptions collected in 15 minute intervals throughout the 1 hour period.
In the spontaneous locomotor activity test, the mean (±s.e.m) value of one hour horizontal activity data (in counts) of each group was calculated.
(§3) The significance of the drug effect was determined by ANOVA followed by post-hoc Duncan-test. The percentage change in the horizontal activity, immobility or “FST-activity” variables were calculated for each dose according to the equation; […]

The test system of assay [2] is Male NMRI mice. The assay can be described thus: Forced swimming test (FST). The following applies: doses of 5 and 10 mg/kg; may be a false positive from nonspecific stimulatory effect. It is filed as in vivo. The method, then:
as §1, §2
The forced swimming test (FST) was measured in glass cylinders (height: […], diameter 14 cm) containing 12 cm of water, maintained at 23-25° C. […] The duration of immobility was recorded using a stopwatch. […]
In the forced swimming test, the mean±standard error on the mean (s.e.m) immobility time in seconds was measured. […] The mean (±s.e.m) “FST-activity” value was also calculated for each group and submitted to the same data analysis process as the immobility data.
as §3

With `O=C(Nc1ccc2[nH]c(=O)oc2c1)C(=O)N1CCC(Cc2ccc(F)cc2)CC1` [radiprodil, 2-[4-(4-fluoro-benzyl)-piperidine-1-yl]-2-oxo-N-(2-oxo-2,3-dihydro-benzoxazol-6-yl)acetamide], the “effect on spontaneous motor activity of the mice” value in the assay on Male NMRI mice [1] was “stimulated”. Further, the “effect in the forced swimming test” value in the assay with Male NMRI mice [2] is “significant effects”.
